In patent US6770738B1, “Higher order structure and binding of peptide nucleic acids” (ISIS Pharmaceuticals, Inc., priority 1992, dated 2004):

Assays:
[1] = test system: Taq DNA polymerase primer extension on pAIOKS; assay: Inhibition of Taq DNA polymerase primer extension by PNA; type: biochemical; conditions: pre-formed complex, 1 ug PNA
Experimental: A mixture of 100 500 ng Pvull cleaved plasmid pAIOKS, 0.1 ug M13 reverse primer and 1 ug of PNA T10-LysNH2(SEQ ID NO:2) in 10 ul buffer ([…], pH 8.3, 50 mM KCl, 1.5 mM MgCl2, 0.1 mg/ml gelatine) was incubated for 5 min at 90° C. and then for 60 min at 37° C. Subsequently, 1 U of Taq polymerase, 1 ul dCTP (100 uM), dGTP (100 uM), dTTP (100 uM) and ^32 P-dATP (1 uCi) were added and the incubation continued for 5 min at 20° C. Following the addition of 2 ul dATP, dCTP, dGTP, dTTP (1 mM each), the sample was incubated for 15 min at 60° C. The DNA was precipitated with ethanol and the samples treated as described for Example 18. The results are shown in FIG. 19: Lane 1: pTIOKS was cut with PvuII and no PNA was present. Lane 2: same as lane one with PNA present. Lane 3: no PNA and PTIOKS was cut with BamHl.

[2] = test system: T3 RNA polymerase transcription of pA10KS (d(A10) target); assay: Inhibition of RNA polymerase T3 transcription elongation by PNA; type: biochemical; conditions: PNA 1 or 10 uM bound to the template strand
Experimental: The complex, between PNA T10-LysNH2 (SEQ ID NO:2) (1 or 10 um) and pAIOKS (pBluescriptKS^+ in which the d(A10) target is cloned into the BamHl site, analogous to pTlO) (100 ng) cleaved with restriction enzyme PyuII, XbaI, or BamHl, was formed by incubation in 14 μL 10 m Tris-HCl, 1 mM EDTA, (pH 7.4) buffer for 60 min. at 37° C. Subsequently 4 μL 5× concentrated polymerase buffer (0.2 M Tris-HCl, pH 8.0, 125 mM NaCl, 40 mM MgCl2, 10 mM spermidine) was added together with 15 U T3 RNA polymerase and ATP (10 mM), CTP (10 mM), GTP (10 mM), UTP (1 mM) and ^32P-UTP (0.1 μCi), and the incubation was continued for 10 min. Following ethanol precipitation, the RNA was analyzed by electrophoresis in sequencing gels and the radiolabeled bands were visualized by autoradiography using intensifying screens. The results are shown in FIG. 18: Lane 1: pTIOKS was cut with PyuH and no PNA was present. Lane 2: pTIOKS was cut with BamHl, and no PNA was present. Lane 3: pTIOKS was cut with XbaI, no PNA. Lane 4: as in lane 1 but in the presence of PNA (1 uM). Lane 5: as lane 3+PNA (1 uM). Lane 6: as lane 1+PNA (10 uM). Lane 7: as lane 3+PNA (10 uM).
The complex between the desired PNA and the desired DNA (100 ng) cleaved with the desired restriction enzyme was formed by incubation in 14 μL 10 mM Tris-HCl, 1 mM EDTA, (pH 7.4) buffer for 60 min at 37° C. Subsequently 4 μL 5× concentrated polymerase buffer (0.2 M Tris-HCl, pH 8.0, 125 mM NaCl, 40 mM MgCl2 10 mM spermidine) was added together with 15 U of RNA polymerase and ATP (10 μM), CTP (10 mM), UTP (1 mM) and ^32P-UTP (0.1 μCi). The incubation was continued for 10 min. Following ethanol precipitation, the RNA was analyzed by electrophoresis in polyacrylamide sequencing gels, and radialabeled RNA bands were visualized by autoradiography (using Agfa Curix RPI X-ray films and intensifying screens). Quantitation was performed by densitometric scanning using a Molecular Dynamics laser scanner and the ImageQuant™ software.
In this example transcription arrest with PNAs shorter than 10 mers was examined. […]

[3] = test system: A98/T98 insert of pA98 plasmid; assay: Electron microscopy of PNA-DNA complex; type: binding
Experimental: A pA98 plasmid containing an A98/T98 (SEQ ID NO:42) insert in the PstI site of the polylinker of a pUC 19 plasmid was used. 0.1 μg of the pA98 plasmid linearized by the Cfr1OI I restriction enzyme was incubated with 0.15 μg of PNA H-T10-LysNH2 (SEQ ID NO:2) at 37 °C. for 3 hours in 10 μL of the TE buffer (10 mM of Tris-HCl, 1 mM of Na3EDTA, pH 8.0). The complex was diluted with buffer containing 10 mM of Tris-HCl, 10 mM of NaCl, pH 7.5 to the final DNA concentration of 0.2-0.5 μg/mL and absorbed to the surface of glow discharged in tripropylamine carbon grid for 2 minutes as described in Duochet, J., Ultrastruct. Res., 1971 35, 147-167. The grid was stained in 0.1-0.5 % water solution of uranyl acetate for 10-15 sec and dried. The sample was shadowed with Pt/C (95/5) and studied in a Philips 400 electron microscope at accelerating voltage of 40 kV. The length of the DNA molecules were measured and a histogram was plotted as described by A. V. Kurakin in Micron Microscopica Acta, 22,213-221 (1991). The length of unwound region was measured by its thicker strand, for which the number of base pairs per unit length was assumed to be the same as for the DNA duplex. For analysis by use of a histogram, the molecules were oriented in such a manner that the left boundary of the loop was closer to the end of the molecule.

Substance: H-T10LysNH2 [PNA H-T10-LysNH2]
- primer extension product of Taq DNA polymerase [1]: a product corresponding in length to blockage at the PNA was produced
- transcription elongation by RNA polymerase T3 [2]: effectively blocked
- strand displacement loop at full occupancy of the target [3]: 90-100 bases
- average size of the loop ([3]; standard error 17 bp): 114 bp
